In patent publication US20090170934A1, “MANUFACTURING PROCESS FOR NO-DONATING COMPOUNDS SUCH AS NO-DONATING DICLOFENAC” (NICOX SA, priority 2002, published 2009):

- melting point: 73 °C
SMILES: O=C(Cc1ccccc1Nc1c(Cl)cccc1Cl)OCCOCCO[N+](=O)[O-] [Compound IVa, 2-[2-(nitrooxy)ethoxy]ethyl {2-[(2,6-dichlorophenyl)amino]phenyl}acetate]
